This note sets out measurements from ChEMBL document CHEMBL3507680, “University of Dundee, Gates Library screen for HepG2 cell viability”.

The nature of this data set: Human HepG2 cell viability assay in 384 well format. Type of data set: toxicity, cell-based. The settings on record: HepG2 cells, read-out: Inhibition. The arrangement: dose 125 nL, time 70.5 hour; concentration not given beside the values.
Turning to `Cc1ccc(NC(=O)NCC2CCS(=O)(=O)C2)cc1Cl` (centres undefined), the cytotoxicity at 70.5 h is 0.575%.

On to `Cc1cnn(CC2CCCCN2c2ncnc3ccccc23)c1` (centres undefined), for which the cytotoxicity at 70.5 h is -5.59%.

Regarding `O=C(NCCNc1ncccn1)N1CCSCC1`, the cytotoxicity at 70.5 h was -11.7%.

`Cn1c(CN2CCC(N3CCNC3=O)CC2)cc(=O)n(C)c1=O`: the cytotoxicity at 70.5 h is -7.49%.

For the molecule `CS(=O)(=O)NC1CCCN(C(=O)NCc2cccnc2)C1` (centres undefined), the cytotoxicity at 70.5 h was -0.126%.

In the case of `CN(CCc1ccccn1)C(=O)CCC1CCCN(c2ncccn2)C1` (centres undefined), the cytotoxicity at 70.5 h is -1.54%.

On to `CCC(=O)N1CCCC1c1n[nH]cc1-c1ccccc1F` (centres undefined), for which the cytotoxicity at 70.5 h was -6.39%.

In the case of `CCc1noc(CN(CCS(C)(=O)=O)C(C)(C)C)n1`, the cytotoxicity at 70.5 h came to 20.2%.

As for `Cc1ccc(CNC(=O)N(Cc2ccccc2F)C2CC2)cn1`, the cytotoxicity at 70.5 h was -1.38%.

Consider `CCc1ccc(CN(C)C(=O)c2ccc(CSc3nnc[nH]3)o2)nc1`, for which the cytotoxicity at 70.5 h was -11.2%.

On to `COc1ccc(OCC(=O)NS(=O)(=O)c2ccc(Br)s2)cc1`, for which the cytotoxicity at 70.5 h came out at 18.9%.

For `CNS(=O)(=O)CC(=O)NCc1cc2c(s1)CCC(C)(C)C2`, the cytotoxicity at 70.5 h is -1.59%.

In the case of `Nc1nnc(CCNC(=O)c2cccc(C3CCCNC3)c2)s1` (centres undefined), the cytotoxicity at 70.5 h was -10.1%.

For the molecule `NC(=O)C1CCCN1C1CCN(C(=O)c2ccc3c(c2)OCO3)CC1` (centres undefined), the cytotoxicity at 70.5 h was -1.65%.

As for `C=C(C)COc1cccc(C(=O)N(CC)Cc2nc(COC)no2)c1`, the cytotoxicity at 70.5 h is -7.82%.

As to `Cc1cc(NC(=O)C2CCN(c3nnc(C)c(C)c3C#N)CC2)no1`, the cytotoxicity at 70.5 h amounted to 0.58%.

With `Cn1nc(C#N)c2c1CN(C(=O)c1nc[nH]n1)CCC2`, the cytotoxicity at 70.5 h was -1.6%.

For `Cc1cc(C)c(CNc2nc3ccccc3cc2CO)c(=O)[nH]1`, the cytotoxicity at 70.5 h was found to be 6.72%.

For `CC(C)CCN1C2(CCN(c3ncccn3)C2)c2ccccc2S1(=O)=O` (centres undefined), the cytotoxicity at 70.5 h was -11.6%.

As for `CC(c1nc(C2CC2)no1)N1CCN(CCc2ccncc2)CC1` (centres undefined), the cytotoxicity at 70.5 h is -12.6%.

In the case of `CC(=O)N1CCC(Cc2nccnc2-c2ccnn2C)CC1`, the cytotoxicity at 70.5 h was -2.74%.

Turning to `COCC(O)CN(C)c1cc(C(F)(F)F)nc(-c2cccnc2)n1` (centres undefined), the cytotoxicity at 70.5 h is -1.69%.

For the molecule `CCCS(=O)(=O)N1C[C@H]2C[C@H](C(=O)Nc3cccnc3)[C@@H](C1)O2`, the cytotoxicity at 70.5 h is -4.17%.

With `CCCSc1ccccc1NC(=O)N1CCN(C(=O)c2ccc[nH]2)CC1`, the cytotoxicity at 70.5 h was -1.4%.

On to `CCn1cc(CN2CCCN(C(=O)c3cccn3C)CC2)cn1`, for which the cytotoxicity at 70.5 h is -7.92%.

Regarding `CS(=O)(=O)Cc1ccc(Cl)c(NCc2noc(C3CC3)n2)c1`, the cytotoxicity at 70.5 h is 0.67%.

As to `CC(C)c1nccn1C1CCCN(C(=O)C2=NN(C)C(=O)CC2)C1` (centres undefined), the cytotoxicity at 70.5 h was -10.1%.

As for `Cc1cc(C(=O)N2CCOC(c3ccc(Cl)c(Cl)c3)C2)[nH]n1` (centres undefined), the cytotoxicity at 70.5 h is -8.67%.

For the molecule `COC(=O)CCN(C)Cc1cc(Br)cs1`, the cytotoxicity at 70.5 h is -21.1%.

As to `NS(=O)(=O)CCNC(=O)c1ccc(-c2ccc(F)cc2)cc1F`, the cytotoxicity at 70.5 h is -6.9%.

For `Cc1nn(C)c(N(C)C)c1CNCc1cccc(Cn2cccn2)c1`, the cytotoxicity at 70.5 h came out at 9.51%.

As for `COc1cc(N2C[C@@H]3COC[C@]3(C(=O)NC3CC(F)(F)C3)C2)ncn1`, the cytotoxicity at 70.5 h was -4.63%.

With `CN1CCCC2(CCN(S(=O)(=O)c3ccc(-c4cnco4)s3)C2)C1=O` (centres undefined), the cytotoxicity at 70.5 h was -7.66%.

As to `CN(C)Cc1nc(C(=O)N2CCCC(COc3ccc(F)cc3)C2)cs1` (centres undefined), the cytotoxicity at 70.5 h is -7.27%.

For `COc1ccc2nnc(CCC(=O)NCc3cccn3C)n2n1`, the cytotoxicity at 70.5 h was -2.62%.

Turning to `COCCC(=O)NCCc1nc(N(C)C)ncc1-c1ccncc1`, the cytotoxicity at 70.5 h is -3.62%.

On to `O=C(NC1CCCN(Cc2c(F)cccc2F)C1)c1cc[nH]n1` (centres undefined), for which the cytotoxicity at 70.5 h was -18%.

Regarding `CC(=O)N1N=C(Cc2ccccc2)OC1C(=O)NCC(=O)OC(C)(C)C` (centres undefined), the cytotoxicity at 70.5 h is -4.37%.

`C[C@H]1C[C@H]2CN(S(=O)(=O)c3ccc(F)cc3)CC[C@H]2O1`: the cytotoxicity at 70.5 h worked out at 13.7%.
